pIC50, pKd: −log10 of the molar value.
Tests used:
[1] = target: T1, 14-3-3 protein zeta/delta (Homo sapiens, UniProt P63104); assay: Binding affinity to human full length 14-3-3zeta by fluorescence polarization assay
T1 sequence (P63104 whole entry): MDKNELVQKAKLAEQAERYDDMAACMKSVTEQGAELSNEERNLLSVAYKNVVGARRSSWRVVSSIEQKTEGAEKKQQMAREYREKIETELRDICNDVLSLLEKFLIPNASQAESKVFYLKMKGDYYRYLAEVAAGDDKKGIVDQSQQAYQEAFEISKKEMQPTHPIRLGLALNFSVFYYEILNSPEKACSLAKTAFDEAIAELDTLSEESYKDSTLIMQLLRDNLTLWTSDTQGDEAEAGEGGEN

[2] = target: Potassium channel subfamily K member 9 (Homo sapiens) (UniProt Q9NPC2); assay: Stabilization of human HA-tagged TASK-3 interaction with 14-3-3 in Xenopus laevis oocytes assessed as increase of TASK-3 expression in plasma membrane at 10 uM by antibody-based luminometric assay relative to control; type: cell-based
[3] = target: T1, 14-3-3 protein zeta/delta; assay: Binding affinity to recombinant human His-tagged 14-3-3zeta expressed in Escherichia coli K12 by ITC method
14-3-3 protein sigma = target: T2, 14-3-3 protein sigma (Homo sapiens, UniProt P31947); assay: Inhibition of TMR-GG-RLSHpSSLPG-NH2 binding to recombinant human GST-tagged 14-3-3-sigma preincubated for 30 mins followed by TMR-GG-RLSHpSSLPG-NH2 addition and measured after 60 mins by fluorescence polarization assay
T2 sequence (P31947 whole entry): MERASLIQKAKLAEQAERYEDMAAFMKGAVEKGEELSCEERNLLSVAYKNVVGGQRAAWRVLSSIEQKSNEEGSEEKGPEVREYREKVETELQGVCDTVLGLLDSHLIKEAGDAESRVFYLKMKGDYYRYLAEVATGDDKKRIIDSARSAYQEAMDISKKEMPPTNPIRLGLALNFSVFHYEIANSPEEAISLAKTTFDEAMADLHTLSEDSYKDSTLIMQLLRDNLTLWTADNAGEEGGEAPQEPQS

14-3-3 protein gamma = target: T3, 14-3-3 protein gamma (Homo sapiens, UniProt P61981); assay: Binding affinity to GST-tagged 14-3-3-gamma (unknown origin) expressed in Escherichia coli BL21(DE3) assessed as inhibition of interaction with PRAS40 in African green monkey COS7 cells preincubated with protein followed by cell addition by ELISA
T3 sequence (P61981 whole entry): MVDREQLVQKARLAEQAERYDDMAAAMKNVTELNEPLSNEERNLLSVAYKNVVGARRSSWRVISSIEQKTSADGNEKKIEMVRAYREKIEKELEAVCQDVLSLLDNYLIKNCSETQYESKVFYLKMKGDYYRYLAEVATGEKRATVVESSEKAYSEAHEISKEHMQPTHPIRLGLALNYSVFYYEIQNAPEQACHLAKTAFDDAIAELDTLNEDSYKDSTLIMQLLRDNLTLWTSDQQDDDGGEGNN

DG-75 = assay: Growth inhibition of human DG75 cells after 48 hrs by trypan blue exclusion method; type: functional, cell-based; settings: DG-75, 48 h

Chain of Potassium channel subfamily K member 9 (Homo sapiens) (Q9NPC2 whole entry): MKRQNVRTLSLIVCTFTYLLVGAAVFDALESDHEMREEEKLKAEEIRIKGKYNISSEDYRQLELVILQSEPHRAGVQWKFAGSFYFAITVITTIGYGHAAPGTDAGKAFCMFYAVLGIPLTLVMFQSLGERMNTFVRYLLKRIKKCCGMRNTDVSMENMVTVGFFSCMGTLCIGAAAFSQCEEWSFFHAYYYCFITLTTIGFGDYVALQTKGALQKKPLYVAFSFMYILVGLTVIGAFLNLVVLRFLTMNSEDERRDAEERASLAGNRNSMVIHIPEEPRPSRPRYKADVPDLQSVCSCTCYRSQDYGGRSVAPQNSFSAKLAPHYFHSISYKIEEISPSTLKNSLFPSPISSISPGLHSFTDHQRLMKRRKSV

| SMILES | pIC50 (14-3-3 protein sigma) | also measured |
| --- | --- | --- |
| CC(C)C[C@H](NC(=O)[C@H](CC(=O)O)NC(=O)[C@]1(C)CCCCCCCCCCCC[C@](C)(NC(=O)CNC(=O)[C@@H](N)CCC(N)=O)C(=O)N[C@@H](CC(C)C)C(=O)N[C@@H](CC(=O)O)C(=O)N[C@@H](C)C(=O)N1)C(=O)N[C@@H](C)C(=O)N[C@@H](CO)C(=O)O |  | pKd [1]: 7.39 |
| COC[C@H]1CC[C@@H]2/C1=C\[C@]1(C)C(=C(C(C)C)[C@@H]3CCO[C@@H]31)[C@@H](O[C@H]1C[C@@H]3COC(C)(C)O[C@H]3[C@H](O)[C@H]1O)[C@H](O)[C@@H]2C |  | Activity [2]: 45% |
| COC[C@H]1CC[C@@H]2/C1=C\[C@]1(C)C(=C([C@H](C)COC(C)=O)CC1OCc1ccccc1/C=N/OC[C@@H](NC(=O)[C@H](CC(=O)O)NC(=O)[C@H](Cc1ccc(O)cc1)NC(=O)[C@H](CO)NC(=O)[C@H](CCC(N)=O)NC(=O)CNS(=O)(=O)c1cccc3c(N(C)C)cccc13)C(C)C)[C@@H](O)[C@H](O)[C@@H]2C (stereo not given in full) |  | pKd [3]: 6.43 |
| [N-]=[N+]=Nc1ccc(C(=O)NCC(=O)N[C@@H](COP(=O)(O)O)C(=O)NCCc2ccc(O)cc2)cc1 | 5.44 to 5.59 |  |
| O=C(CNC(=O)c1ccc(CCl)cc1)N[C@@H](COP(=O)(O)O)C(=O)NCCc1ccc(O)cc1 | 5.44 to 5.59 |  |
| O=C(CNC(=O)c1ccc(CCl)cc1)N[C@@H](COP(=O)(O)O)C(=O)NCc1ccc2c(c1)OCO2 | 5.44 to 5.59 |  |
| CC(C)=CC(=O)N[C@@H](COP(=O)(O)O)C(=O)NCCc1ccc(O)cc1 | 5.44 to 5.59 |  |
| Cc1nc(/N=N/c2ccc(C(=O)O)cc2)c(COP(=O)(O)O)c(C=O)c1O |  | pIC50 (14-3-3 protein gamma): 4.79 |
| CC(C)=CC(=O)N[C@@H](COP(=O)(O)O)C(=O)NCc1ccc2c(c1)OCO2 | 5.44 to 5.59 |  |
| CN(CCCCCl)P(=O)(OCc1ccc([N+](=O)[O-])o1)C(F)(F)C[C@H](NC(=O)CNC(=O)c1ccc(N)cc1)C(=O)NCCc1ccc(O)cc1 (stereo not given in full) |  | pIC50 (DG-75): 5.30 |

Reference: ChEMBL document CHEMBL4229326, “Modulators of 14-3-3 Protein-Protein Interactions” (J Med Chem, 2018)
